From the supplement of paper PMC13207355

What was measured:
Details in all cases: exposure time: 72 h
[1] = system: E21 (patient-derived glioblastoma stem cells of mesenchymal subtype); test: surviving fraction (nuclei count normalised to DMSO); higher = more cells surviving (less toxic)
[2] = system: E34 (patient-derived glioblastoma stem cells of proneural subtype); test: as above
[3] = system: E28 (patient-derived glioblastoma stem cells of classical subtype); test: as above
[4] = system: E57 (patient-derived glioblastoma stem cells of mesenchymal subtype); test: as above
[5] = system: FT3469 (normal neural stem cell line); test: as above
[6] = system: E13 (patient-derived glioblastoma stem cells of classical subtype); test: as above
[7] = system: E31 (patient-derived glioblastoma stem cells of proneural subtype); test: as above
[8] = system: E21; test: phenotypic distance (Euclidean, principal components) from DMSO controls (arbitrary units); higher = stronger morphological change
[9] = system: E34; test: as above
[10] = system: E28; test: as above
[11] = system: E57; test: as above
[12] = system: FT3469; test: as above
[13] = system: E13; test: as above
[14] = system: E31; test: as above
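Wherever phenotypic distance (Euclidean, principal components) from DMSO controls is given: cell Painting imaging in 384-well plates, CellProfiler features reduced to at least 20 principal components, Euclidean distance versus same-plate DMSO vehicle wells (0.1% v/v), median over six images per well.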
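Wherever surviving fraction (nuclei count normalised to DMSO) is given: nuclei counted by high-content imaging of Hoechst-stained cells in laminin-coated 384-well plates, relative to 0.1% DMSO vehicle wells, with staurosporine as cell-death control.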

Cc1c2ccncc2c(C)c2c1[nH]c1ccccc12 [Ellipticine]
Details | phenotypic distance | surviving fraction
[1], 4.1 nM | – | 0.991
[1], 12.3 nM | – | 1.07
[1], 37 nM | – | 0.888
[1], 111.1 nM | – | 0.831
[1], 333.3 nM | – | 0.754
[1], 1000 nM | – | 0.72
[1], 3000 nM | – | 0.499
[2], 4.1 nM | – | 1.07
[2], 12.3 nM | – | 0.94
[2], 37 nM | – | 1.04
[2], 111.1 nM | – | 0.952
[2], 333.3 nM | – | 0.935
[2], 1000 nM | – | 0.753
[2], 3000 nM | – | 0.534
[3], 4.1 nM | – | 1.11
[3], 12.3 nM | – | 1.11
[3], 37 nM | – | 1.08
[3], 111.1 nM | – | 1.05
[3], 333.3 nM | – | 0.967
[3], 1000 nM | – | 0.668
[3], 3000 nM | – | 0.352
[4], 4.1 nM | – | 0.88
[4], 12.3 nM | – | 0.933
[4], 37 nM | – | 0.926
[4], 111.1 nM | – | 0.959
[4], 333.3 nM | – | 0.867
[4], 1000 nM | – | 0.784
[4], 3000 nM | – | 0.409
[5], 4.1 nM | – | 1.13
[5], 12.3 nM | – | 1.11
[5], 37 nM | – | 1.08
[5], 111.1 nM | – | 1.11
[5], 333.3 nM | – | 1.3
[5], 1000 nM | – | 0.787
[5], 3000 nM | – | 0.649
[6], 4.1 nM | – | 1.06
[6], 12.3 nM | – | 0.896
[6], 37 nM | – | 0.936
[6], 111.1 nM | – | 0.958
[6], 333.3 nM | – | 0.912
[6], 1000 nM | – | 0.784
[6], 3000 nM | – | 0.473
[7], 4.1 nM | – | 1.02
[7], 12.3 nM | – | 0.977
[7], 37 nM | – | 1.07
[7], 111.1 nM | – | 0.963
[7], 333.3 nM | – | 0.768
[7], 1000 nM | – | 0.648
[7], 3000 nM | – | 0.395
[8], 4.1 nM | 1.16 | –
[8], 12.3 nM | 1.17 | –
[8], 37 nM | 1.79 | –
[8], 111.1 nM | 2.04 | –
[8], 333.3 nM | 2.29 | –
[8], 1000 nM | 2.28 | –
[8], 3000 nM | 2.98 | –
[9], 4.1 nM | 0.723 | –
[9], 12.3 nM | 0.43 | –
[9], 37 nM | 0.492 | –
[9], 111.1 nM | 0.978 | –
[9], 333.3 nM | 1.01 | –
[9], 1000 nM | 1.43 | –
[9], 3000 nM | 2.39 | –
[10], 4.1 nM | 0.578 | –
[10], 12.3 nM | 0.641 | –
[10], 37 nM | 0.588 | –
[10], 111.1 nM | 0.478 | –
[10], 333.3 nM | 0.804 | –
[10], 1000 nM | 1.01 | –
[10], 3000 nM | 2.73 | –
[11], 4.1 nM | 1.05 | –
[11], 12.3 nM | 0.752 | –
[11], 37 nM | 1.12 | –
[11], 111.1 nM | 1.64 | –
[11], 333.3 nM | 1.87 | –
[11], 1000 nM | 2.3 | –
[11], 3000 nM | 4.58 | –
[12], 4.1 nM | 1.04 | –
[12], 12.3 nM | 0.711 | –
[12], 37 nM | 0.462 | –
[12], 111.1 nM | 0.869 | –
[12], 333.3 nM | 1.18 | –
[12], 1000 nM | 1.47 | –
[12], 3000 nM | 1.7 | –
[13], 4.1 nM | 0.815 | –
[13], 12.3 nM | 0.556 | –
[13], 37 nM | 0.741 | –
[13], 111.1 nM | 0.932 | –
[13], 333.3 nM | 1.52 | –
[13], 1000 nM | 2.23 | –
[13], 3000 nM | 4.47 | –
[14], 4.1 nM | 0.486 | –
[14], 12.3 nM | 0.52 | –
[14], 37 nM | 0.379 | –
[14], 111.1 nM | 0.662 | –
[14], 333.3 nM | 0.789 | –
[14], 1000 nM | 1.24 | –
[14], 3000 nM | 2.27 | –

COc1cc([C@@H]2c3cc4c(cc3[C@@H](O[C@@H]3O[C@@H]5CO[C@@H](C)O[C@H]5[C@H](O)[C@H]3O)[C@H]3COC(=O)[C@H]23)OCO4)cc(OC)c1O [Etoposide]
Details | phenotypic distance | surviving fraction
[1], 4.11523 nM | – | 0.896
[1], 12.34567901 nM | – | 0.855
[1], 37.037 nM | – | 0.885
[1], 111.1111111 nM | – | 0.812
[1], 333.333 nM | – | 0.588
[1], 1000 nM | – | 0.47
[1], 3000 nM | – | 0.298
[2], 4.11523 nM | – | 0.83
[2], 12.34567901 nM | – | 0.966
[2], 37.037 nM | – | 0.848
[2], 111.1111111 nM | – | 0.873
[2], 333.333 nM | – | 0.668
[2], 1000 nM | – | 0.534
[2], 3000 nM | – | 0.557
[3], 4.11523 nM | – | 0.881
[3], 12.34567901 nM | – | 0.762
[3], 37.037 nM | – | 0.621
[3], 111.1111111 nM | – | 0.419
[3], 333.333 nM | – | 0.436
[3], 1000 nM | – | 0.266
[3], 3000 nM | – | 0.364
[4], 4.11523 nM | – | 0.919
[4], 12.34567901 nM | – | 1.01
[4], 37.037 nM | – | 0.959
[4], 111.1111111 nM | – | 0.851
[4], 333.333 nM | – | 0.435
[4], 1000 nM | – | 0.295
[4], 3000 nM | – | 0.182
[5], 4.11523 nM | – | 0.827
[5], 12.34567901 nM | – | 0.774
[5], 37.037 nM | – | 0.902
[5], 111.1111111 nM | – | 0.731
[5], 333.333 nM | – | 0.662
[5], 1000 nM | – | 0.582
[5], 3000 nM | – | 0.566
[6], 4.11523 nM | – | 1.03
[6], 12.34567901 nM | – | 0.806
[6], 37.037 nM | – | 0.901
[6], 111.1111111 nM | – | 0.78
[6], 333.333 nM | – | 0.516
[6], 1000 nM | – | 0.473
[6], 3000 nM | – | 0.374
[7], 4.11523 nM | – | 0.746
[7], 12.34567901 nM | – | 0.823
[7], 37.037 nM | – | 0.554
[7], 111.1111111 nM | – | 0.493
[7], 333.333 nM | – | 0.307
[7], 1000 nM | – | 0.283
[7], 3000 nM | – | 0.231
[8], 4.11523 nM | 0.716 | –
[8], 12.34567901 nM | 0.855 | –
[8], 37.037 nM | 0.967 | –
[8], 111.1111111 nM | 1.35 | –
[8], 333.333 nM | 2.88 | –
[8], 1000 nM | 5.75 | –
[8], 3000 nM | 5.93 | –
[9], 4.11523 nM | 0.877 | –
[9], 12.34567901 nM | 0.742 | –
[9], 37.037 nM | 0.789 | –
[9], 111.1111111 nM | 1.03 | –
[9], 333.333 nM | 2.75 | –
[9], 1000 nM | 3.46 | –
[9], 3000 nM | 4.17 | –
[10], 4.11523 nM | 0.783 | –
[10], 12.34567901 nM | 1.11 | –
[10], 37.037 nM | 1.44 | –
[10], 111.1111111 nM | 1.78 | –
[10], 333.333 nM | 2.64 | –
[10], 1000 nM | 2.9 | –
[10], 3000 nM | 2.64 | –
[11], 4.11523 nM | 0.758 | –
[11], 12.34567901 nM | 0.794 | –
[11], 37.037 nM | 0.549 | –
[11], 111.1111111 nM | 1.24 | –
[11], 333.333 nM | 4.25 | –
[11], 1000 nM | 6.83 | –
[11], 3000 nM | 7.52 | –
[12], 4.11523 nM | 0.576 | –
[12], 12.34567901 nM | 0.799 | –
[12], 37.037 nM | 3.73 | –
[12], 111.1111111 nM | 1.07 | –
[12], 333.333 nM | 1.54 | –
[12], 1000 nM | 2.2 | –
[12], 3000 nM | 1.92 | –
[13], 4.11523 nM | 1.04 | –
[13], 12.34567901 nM | 0.799 | –
[13], 37.037 nM | 0.736 | –
[13], 111.1111111 nM | 0.704 | –
[13], 333.333 nM | 2.88 | –
[13], 1000 nM | 4.56 | –
[13], 3000 nM | 5.77 | –
[14], 4.11523 nM | 0.939 | –
[14], 12.34567901 nM | 0.828 | –
[14], 37.037 nM | 1.58 | –
[14], 111.1111111 nM | 3.2 | –
[14], 333.333 nM | 4.03 | –
[14], 1000 nM | 2 | –
[14], 3000 nM | 2.86 | –
